{
  "source": "patent US4017607A",
  "key": {"[1]": {"tested_on": "Staphylococcus aureus 209P", "assay": "Minimum inhibitory concentration, serial dilution method, Brain Heart Infusion broth", "type": "cell-based", "details": "Staphylococcus aureus, 209P, 24 h, read-out: Minimum Inhibitory Concentration"}, "[2]": {"tested_on": "Sarcina lutea", "assay": "Minimum inhibitory concentration, serial dilution method", "type": "cell-based", "details": "Micrococcus luteus, 24 h, read-out: Minimum Inhibitory Concentration"}, "[3]": {"tested_on": "Staphylococcus aureus Smith", "assay": "Minimum inhibitory concentration, serial dilution method", "type": "cell-based", "details": "Staphylococcus aureus, 24 h, read-out: Minimum Inhibitory Concentration"}, "[4]": {"tested_on": "Staphylococcus albus 1200A", "assay": "Minimum inhibitory concentration, serial dilution method", "type": "cell-based", "details": "Staphylococcus, 1200A, 24 h, read-out: Minimum Inhibitory Concentration"}, "[5]": {"tested_on": "Streptococcus faecalis ATCC 8043", "assay": "Minimum inhibitory concentration, serial dilution method", "type": "cell-based", "details": "Enterococcus faecalis, ATCC8043, 24 h, read-out: Minimum Inhibitory Concentration"}, "[6]": {"tested_on": "Staphylococcus aureus 209P", "details": "7th day, 10 mice per group"}, "[7]": {"tested_on": "Bacillus subtilis ATCC 6633", "assay": "Minimum inhibitory concentration, serial dilution method", "type": "cell-based", "details": "Bacillus subtilis, ATCC6633, 24 h, read-out: Minimum Inhibitory Concentration"}, "[8]": {"tested_on": "Diplococcus pneumoniae Type III", "assay": "Minimum inhibitory concentration, serial dilution method", "type": "cell-based", "details": "Streptococcus pneumoniae, 24 h, read-out: Minimum Inhibitory Concentration"}, "[9]": {"tested_on": "Corynebacterium diphtheriae Type intermedius", "assay": "Minimum inhibitory concentration, serial dilution method", "type": "cell-based", "details": "Corynebacterium diphtheriae, 24 h, read-out: Minimum Inhibitory Concentration"}, "[10]": {"tested_on": "Diplococcus pneumoniae Type I", "assay": "Minimum inhibitory concentration, serial dilution method", "type": "cell-based", "details": "Streptococcus pneumoniae, 24 h, read-out: Minimum Inhibitory Concentration"}, "[11]": {"tested_on": "Streptococcus hemolyticus D-90", "assay": "Minimum inhibitory concentration, serial dilution method", "type": "cell-based", "details": "Streptococcus pyogenes, D90, 24 h, read-out: Minimum Inhibitory Concentration"}, "[12]": {"tested_on": "Streptococcus pyogenes D-58", "assay": "Minimum inhibitory concentration, serial dilution method", "type": "cell-based", "details": "Streptococcus pyogenes, D58, 24 h, read-out: Minimum Inhibitory Concentration"}, "[13]": {"tested_on": "Bacillus subtilis PCI 219", "assay": "Minimum inhibitory concentration, serial dilution method", "type": "cell-based", "details": "Bacillus subtilis, PCI219, 24 h, read-out: Minimum Inhibitory Concentration"}, "[14]": {"tested_on": "Bacillus anthracis No. 119", "assay": "microbe, parasite or virus in culture", "type": "cell-based", "details": "NO.119, 24 h, read-out: Minimum Inhibitory Concentration"}, "[15]": {"assay": "Acute toxicity by oral administration to mice", "details": "mouse, in vivo, free base"}, "[16]": {"tested_on": "Corynebacterium diphtheriae Type gravis", "assay": "Minimum inhibitory concentration, serial dilution method", "type": "cell-based", "details": "Corynebacterium diphtheriae, 24 h, read-out: Minimum Inhibitory Concentration"}, "[17]": {"tested_on": "Staphylococcus aureus Terajima", "assay": "Minimum inhibitory concentration, serial dilution method", "type": "cell-based", "details": "Staphylococcus aureus, 24 h, read-out: Minimum Inhibitory Concentration"}, "[18]": {"tested_on": "Streptococcus hemolyticus Cook", "assay": "Minimum inhibitory concentration, serial dilution method", "type": "cell-based", "details": "Streptococcus pyogenes, 24 h, read-out: Minimum Inhibitory Concentration"}},
  "note": "Like-named read-outs stand apart in the source and are kept apart here.",
  "data": [
    {"smiles": "CCC(=O)OC1CC(=O)OC(C)CC=CC=CC(O)C(C)CC(CC=O)C(OC2OC(C)C(OC3CC(C)(O)C(OC(=O)CC)C(C)O3)C(N(C)C)C2O)C1OC", "note": "(stereo not shown) [SF-837 substance, reference compound]", "values": [
      {"measurement": "MIC", "setting": "[1]", "result": 0.78, "unit": "µg/mL"},
      {"measurement": "MIC", "setting": "[2]", "result": 0.09, "unit": "µg/mL"},
      {"measurement": "MIC", "setting": "[3]", "result": 0.19, "unit": "µg/mL"},
      {"measurement": "MIC", "setting": "[4]", "result": 0.78, "unit": "µg/mL"},
      {"measurement": "MIC", "setting": "[5]", "result": 1.56, "unit": "µg/mL"},
      {"measurement": "Rate of surviving mice in each group of mice", "setting": "[6]; 100 mg/kg oral", "result": "0/10"},
      {"measurement": "Rate of surviving mice in each group of mice", "setting": "[6]; 200 mg/kg oral", "result": "6/10"},
      {"measurement": "MIC", "setting": "[7]", "result": 1.56, "unit": "µg/mL"},
      {"measurement": "MIC", "setting": "[8]", "result": 0.04, "unit": "µg/mL"},
      {"measurement": "MIC", "setting": "[9]", "result": 0.19, "unit": "µg/mL"},
      {"measurement": "MIC", "setting": "[10]", "result": 0.04, "unit": "µg/mL"},
      {"measurement": "MIC", "setting": "[11]", "result": 1.56, "unit": "µg/mL"},
      {"measurement": "MIC", "setting": "[12]", "result": 0.09, "unit": "µg/mL"},
      {"measurement": "MIC", "setting": "[13]", "result": 0.78, "unit": "µg/mL"},
      {"measurement": "MIC", "setting": "[14]", "result": 0.78, "unit": "µg/mL"},
      {"measurement": "LD50", "setting": "[15]", "result": 3200, "unit": "mg/kg"},
      {"measurement": "MIC", "setting": "[16]", "result": 0.19, "unit": "µg/mL"},
      {"measurement": "MIC", "setting": "[17]", "result": 1.56, "unit": "µg/mL"},
      {"measurement": "MIC", "setting": "[18]", "result": 0.09, "unit": "µg/mL"}
    ]}
  ]
}
